For series [1], the system named is SLE, hypocomplementemic urticarial vasculitis. The settings on record: in vivo.
For series [2], the system named is stage-4 metastatic breast cancer. The series is described as follows: Case report: antibiotic treatment of metastatic breast cancer. Format: in vivo, human. On the procedure: A person was diagnosed with stage-4 metastatic breast cancer with bone, pelvic and lung involvement. Treatment was initiated on Jan. 23, 2005 with Amoxicillin 500 mg 1 QD, Ketek 400 mg 1 QD, Flagyl 500 mg 2 BID. The dose of Flagyl was […] to 500 mg 1 BID on Feb. 1, 2005. By Feb. […] Hospitalization was necessary. […] The attending physicians presumed the cause of their condition was C. difficile related despite the negative tests and treated them with metronidazole. […] They were encouraged to discontinue antibiotic treatment and enter hospice for palliative care.

The subject of series [3] is stage 4-metastatic pancreatic cancer. Kind of series: Case report: antibiotic treatment of pancreatic cancer (Example 3). Format: in vivo, human. The settings on record: before antibiotic treatment.
Protocol: Ascites had developed and paracentesis was performed 3 days prior to our first visit. They were having difficulty breathing and eating due to abdominal distention from ascites. […] Treatment with Amoxicillin 500 mg 1 QD, Ketek 500 mg 1 QD, and Flagyl 500 mg 1-2 QD was initiated. […] 4, 2005 and was tolerating the above protocol. Their lab results from Jan. […] 27, 2004:
The dose of Flagyl was increased to 1500 mg on Jan. […] 27, 2005.
Series [4] relates to pancreatic cancer. The following applies: in vivo.
For series [5], the system named is SLE, hypocomplementemic urticarial vasculitis. Kind of series: Case report: treatment of systemic lupus erythematosus.
For series [6] the following is noted: cited from earlier work.
The subject of series [7] is Cpn infected macrophages. The following applies: in vitro; cited from earlier work.
Series [8] has as its system recurrent bronchitis. The series is described as follows: Case report: post-radiation recurrent bronchitis, antibacterial and antifungal therapy. The class given is in vivo, human. The following applies: 500 mg QD #20; sputum positive for Klebsiella pneumoniae. The text has this: It is generally known that ACC is not usually sensitive to chemotherapy or standard […] beam radiation. Higher energy radiation doses, such as neutron beam radiation, have shown some promise and referral to the Cancer Center for radiation treatment was arranged. Under the care of a physician, 16 sessions of neutron beam radiation were provided, followed by two sessions of endotracheal brachytherapy with proton radiation. The patient tolerated the radiation relatively well and returned to work. They were warned that chronic bronchitis might follow airway radiation from the loss of salivary cells and ciliary cells in the bronchus. The patient was screened for recurrence twice yearly with neck MRI and lung CT for 3 years and there was no evidence of recurrence. Post radiation year 4 brought recurrent bronchitis that would remit temporarily with antibiotic therapy.
Bronchoscopy was performed in January of 2004 to better determine the source of recurrent bronchitis. There was no evidence of cancer recurrence (FIG. 1). […] Brochoscopic washings were also sent for fungal cultures. The patient's IgG levels to Penicillium and Aspergillus were elevated, while the routine fungal cultures from bronchial washings were negative. […] The patient reported reduced fatigue, reduced inhalant allergies and a slight reduction in volume of sputum production. […]

Series [9] deals with Alzheimer's dementia. The series is described as follows: Case report: DRS-2 in a patient with Alzheimer's dementia. The following applies: human, in vivo. Here is the method:
A retired attorney with Alzheimer's dementia was tested with the DRS-2 and found to be in the first percentile overall before T3 treatment and in the 25th percentile after 3 months of slow-release T3 therapy. Some parameters such as “conceptualization” increase dramatically from the 4th to the 50th percentile and “attention” improved from the 35th to the 89th percentile. […] Serology for Chlamydia pneumoniae confirmed both IgG and IgA antibodies (consistent with chronic or relapsing infection) and treatment with antibiotic medication has provided additional improvement in cognitive function. Prophylactic treatment with low dose antifungal medication is a component of this treatment.

The test system of series [10] is seropositive RA. The series is described as follows: Case report: Chlamydia pneumoniae-related rheumatoid arthritis. Format: in vivo, human. The following applies: low dose. On the procedure: A person with seropositive RA with joint swelling in their hands, elbows, knees and feet had negative serology for Chlamydia pneumoniae infection, along with elevated rT3/fT3 ratio and symptoms of fibromyalgia. They were initially treated with immunosuppressive medication including Prednisone 20 mg QD, Methotrexate 15 mg Qweek, antiTNF therapy with Humira injections twice monthly with limited response of less than ACR 20. […] After failing immunosuppressive therapy, a course of antibiotics designed to treat Chlamydia pneumoniae infection was prescribed. The antibiotic protocol is consistent with that recommended by Dr. Charles Stratton of Vanderbilt University for Chlamydia pneumoniae infection. […] This example illustrates the unreliable nature of currently available tests for Chlamydia pneumoniae infection and that patients with autoimmune disease with negative tests for Chlamydia pneumoniae infection are likely to have seronegative Chlamydia pneumoniae infection and respond to antibiotics. The use of T3 and antifungal medication in conjunction with antibiotic treatment has been beneficial.

Where two headings read alike, the source gives them in different places.

For the compound `Cc1oncc1C(=O)Nc1ccc(C(F)(F)F)cc1` [Arava], the tolerability of trial entry in series [1] is recorded as “poorly tolerated”. `CN[C@H](CC(C)C)C(=O)N[C@H]1C(=O)N[C@@H](CC(N)=O)C(=O)N[C@H]2C(=O)N[C@H]3C(=O)N[C@H](C(=O)N[C@H](C(=O)O)c4cc(O)cc(O)c4-c4cc3ccc4O)[C@H](O)c3ccc(c(Cl)c3)Oc3cc2cc(c3O[C@@H]2O[C@H](CO)[C@@H](O)[C@H](O)[C@H]2O[C@H]2C[C@](C)(N)[C@H](O)[C@H](C)O2)Oc2ccc(cc2Cl)[C@H]1O` [Vancomycin]: the symptoms after switch result in [2] (in hospital) is “symptoms gradually improved six days later”. As to `CCCCCOC(=O)Nc1nc(=O)n([C@@H]2O[C@H](C)[C@@H](O)[C@H]2O)cc1F` [zoloda], in series [3], the outcome of chemotherapy is listed as “failed”. On to `Cc1ncc([N+](=O)[O-])n1CCO` [metronidazole], for which the adverse reaction entry in series [2] (after one week of increased doses) was “severe depression, hypotension, hypothermia, emesis and diarrhea”. In addition, the “symptoms of presumed C. difficile diarrhea” value in [2] (in hospital, C. difficile tests negative) is recorded as “symptoms did not remit”. In [4], the “tolerability of increased dose” value is recorded as “well tolerated”. For the compound `CCN(CCO)CCCC(C)Nc1ccnc2cc(Cl)ccc12` (stereo not shown) [hydroxychloroquine], in series [5] (before October 2003), the “synovitis, hypocomplementemic urticarial rash and proteinuria” value is reported as “responding to treatment”. `O=C1O[C@H]([C@@H](O)CO)C(O)=C1O` [Ascorbic acid]: the half life in series [6] is 30 min. In addition, the “effect on Cpn in infected macrophages” value in [7] is listed as “driving the organism into cryptic phase”. Take `C[C@H]1COc2c(N3CCN(C)CC3)c(F)cc3c(=O)c(C(=O)O)cn1c23` [Levoquin]: in series [8], the sputum production entry is “reduced sputum production for three weeks”. With `CN(Cc1cnc2nc(N)nc(N)c2n1)c1ccc(C(=O)N[C@@H](CCC(=O)O)C(=O)O)cc1` [methotrexate], the tolerability of trial entry in series [5] (additional immunosuppressive therapy) was “poorly tolerated”.

On to `N[C@@H](Cc1cc(I)c(Oc2ccc(O)c(I)c2)c(I)c1)C(=O)O` [T3, triiodothyronine], for which the “effect of discontinuation of supplementation” value in [9] is “worsening of Alzheimer's symptoms”. Also, the “fatigue and muscle pain” value in series [10] was “fatigue and muscle pain improved”.

Source of the values: patent US8343488B2, “Diagnosis and treatment of human dormancy-related sequellae” (priority 2002, dated 2013).
